Data as given in patent US5482975A, “Adenosine diphosphoribose polymerase binding nitroso aromatic compounds useful as retroviral inactivating agents, anti-retroviral agents and anti-tumor agents” (priority 1993, dated 1996).

Tests used:
855-2 cells [1] = test: [3H] thymidine uptake / growth, 855-2 cells (FIG. 2A, E, F; FIG. 3); assay type: cell-based, human
Procedure: FIGS. 2A-2F are a composite of graphs displaying the inhibitory effects of the ADRPT ligands on (FIG. 2A) 855-2 cells (a cell line of human B-cell lineage acute lymphoblastic leukemia), (FIG. 2B) H9 cells (a cell line of human T-cell lineage acute lymphoblastic leukemia), FIG. (2C) HL-60 cells (a cell line of human acute nonlymphoblastic leukemia) and (FIG. 2D) K562 cells (a cell line of human chronic myelogenous leukemia). These cells were cultured while under the influence of the growth factors in 10% fetal bovine serum (FCS), whereas in (FIG. 2E) and (FIG. 2F) the 855-2 cells were cultured in the presence of autocrine growth factor activity (AGF) or low molecular weight-B-cell growth factor (BCGF, a T-cell derived lymphokine), respectively.
Experiments using HL-60 cells (FIG. 2C) provided similar conclusions.
855-2 cells that were grown in media with (1) 10% fetal bovine serum, (2) autocrine growth factor (AGF) and (3) low molecular weight-BCGF (a T cell derived lymphokine) were exposed to increasing concentrations of the ADRPT ligands.

L1210 murine leukemia = L1210 murine leukemia in vivo; set-up: species or system BDF mice; settings: 2 mg/kg i.p. twice a day, 6 consecutive days
855-2 cells [2] = test: colony formation (CFU) of leukemic cells in semi-solid medium (FIG. 4); assay type: cell-based, human
Procedure: Experiments were performed in which the functions of various cancer cells (855-2 and HL-60 leukemia cells, D32, D37 and CRL 7712 glioblastoma cell lines, 186 medulla tumor cell line, L1210 murine leukemia cell line, MDA-468 human breast tumor cell line) and normal cells (neutrophil leukocytes and bone marrow or peripheral blood stream cells) were assessed in the absence or presence of the compounds.

HIV-1 (LAV strain) = test: HIV-1 inactivation assay in PBL cultures (FIG. 13A, B); assay type: cell-based; settings: NOBA versus NOBP
Procedure: The assay was performed as described in FIG. 13A except that the 30 min. preincubation of virus with NOBA was carried out at 0>, 22° or 37° C.
An HIV-1 stock having an infectivity titer of 100,000 TCID50 was incubated for 30 min. at 22° C. with either of the drugs. Control HIV samples, containing no drugs, were incubated in the same manner. […] At the end of this incubation cultures were assayed for productive infection by an immunoassay for HIV-1 antigens and by reverse transcriptase as described in McDougal, et al., J. Immunol Methods 76:171-183 (1985). Virus titers were expressed as percentile values (percent infected cultures) compared to the controls, containing HIV dilutions which were not preincubated with the C-nitroso drugs. In a separate series of experiments, HIV-1 dilutions and C-nitroso drugs (see upper abscissa) were not preincubated but were added simultaneously to lymphocytes in exactly the same concentrations as described previously (i.e., following preincubation) and viral growth monitored 9 days later. […] Chem. Soc. 111:395-396 (1989), South, et al., Biochem Pharm. 40:123-129 (1990), Summers, et al., Biochemistry 29:329-340 (1990), the inhibition of HIV-1 propagation was profound when C-nitroso drugs were preincubated with HIV-1, whereas only negligible effect on HIV-1 growth occurred when both drugs and virus were added simultaneously. […]

For `NC(=O)c1cccc(N=O)c1` [NOBA, 3-nitrosobenzamide], the “growth arrest in increasing FCS” value (855-2 cells [1]; 10 μM, increasing FCS concentrations) was “Growth arrest occurs irrespective of the concentration of FCS”, the “inhibitory effects with different growth factors” value (855-2 cells [1]; 10% fetal bovine serum, AGF or BCGF) was “potent inhibitory effects” and the “in vivo chemotherapeutic response” value (L1210 murine leukemia) was “highly significant in vivo chemotherapeutic response”. The “toxic effects in mice” value (L1210 murine leukemia) was “no toxic effects”, the “ability to form colonies (CFU)” value (855-2 cells [2]) was “inhibit the ability” and the “relative depression of HIV-1 propagation” value (HIV-1 (LAV strain)) was “greater depression of HIV-1 propagation”.
